Results from BindingDB's records for doi:10.1021/jm00170a007 (Pfizer, 1990).

Experiments:
[1] = Compound was evaluated for its inhibitory activity against 5-hydroxytryptamine 1D receptor of bovine caudate using [3H]5-HT as the radioligand
[2] = inhibitory activity against 5-hydroxytryptamine 1C receptor of pig choroid plexus using [3H]mesulergine as the radioligand

FC(F)(F)c1ccc2c(c1)nc(N1CCNCC1)c1cccn12 [4-Piperazin-1-yl-7-trifluoromethyl-pyrrolo[1,2-a]quinoxaline(desmethyl-CGS-12066B)]
IC50 [1]: 0.19 µM
IC50 [2]: 10 µM
